These are literature values, as cited in US7595079B2, “Nutritional conjunctive support therapy for recovery in animals following stress or illness” (Bomac Vets Plus, Inc., priority 2005, dated 2009).

In one data set the test system is small intestinal crypt. Conditions: E. coli induced diarrhea in calves; target value ≦100.
In the next data set the test system is jejunum villus. The settings on record: weaning of pigs; target value ≧339.
For a further data set, the system named is jejunum crypt. Conditions: malnourished rats; target value ≦150.

Consider `NC(=O)CC[C@H](N)C(=O)O` [Glutamine], for which the “Mid plus Distal small intestinal Crypt width (mean % of baseline control)” value in the data set with small intestinal crypt is listed as 92.2 mean % of baseline control. Moreover, in the data set on jejunum villus, the “Jejunum Villus Height” value was 358 um. The “Jejunum Crypt depth” value in the data set with jejunum crypt was 134 um.
